# Source: PubChem BioAssay (NCI)
# Several values for one entry are separate records, joined by “and”; a condition that tells them apart may be missing. Equal values may be shown once.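 Briefly, cells in 96-well plates were exposed to five compound concentrations for 48 h, and endpoints were estimated by linear interpolation. Abbreviation: GI50, concentration required for 50% inhibition of growth. The concentration for full growth arrest is given as TGI.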
# Columns and labels:
# Experiment in all cases: DTP human tumour cell line panel, 48 h
# [1] = tested on: UACC-62 melanoma
# [2] = tested on: SW-620 colon
# [3] = tested on: KM12 colon
# [4] = tested on: SN12C renal
# [5] = tested on: MOLT-4 leukemia
# [6] = tested on: HCC-2998 colon
# [7] = tested on: SNB-75 CNS
# [8] = tested on: NCI-H23 lung
# [9] = tested on: CAKI-1 renal
# [10] = tested on: BT-549 breast
SMILES,TGI [1],TGI [2],TGI [3],TGI [4],TGI [5],TGI [6] [µM],TGI [7] [µM],TGI [8] [µM],TGI [9] [µM],TGI [10] [µM],GI50 [10] [µM],GI50 [1] [µM],GI50 [2] [µM],GI50 [3] [µM],GI50 [4] [µM],GI50 [5],GI50 [7] [µM],GI50 [8] [µM],GI50 [9] [µM],GI50 [6] [µM]
CC1=NN(c2ccccc2)C(=O)C12[C@H](c1ccccc1)C2(C#N)C#N (some centres undefined),12.4 µM,3.84 µM,25.1 µM,14.3 µM,3.1 µM,34.1,19.3,11,16.3,,,,,,,,,,,
O=C(c1ccccc1)c1nnn(Cc2ccccc2Cn2nnc(C(=O)c3ccccc3)c2C(=O)c2ccccc2)c1C(=O)c1ccccc1,> 100 µM,> 100 µM,> 100 µM,> 100 µM,> 100 µM,> 100,> 100,> 100,> 100,,,,,,,,,,,
COC(=O)c1onc(C2OC(C)(C)OC2C(O)COC(c2ccccc2)(c2ccccc2)c2ccccc2)c1C(=O)OC (centres undefined),> 100 µM,> 100 µM,> 100 µM,> 100 µM,> 100 µM,> 100,,> 100,,,,,,,,,,,,
O=C1CC(c2cccc(Cl)c2)Oc2ccccc21 (centres undefined),29.8 µM,72.1 µM,39.5 µM,,,35.7,66.6,24.3,23.3,,,,,,,,,,,
COc1cc(Cl)c(CC(=O)c2c[nH]c3ccccc23)cc1OC,> 100 µM,> 100 µM,> 100 µM,> 100 µM,> 100 µM,,31.5,> 100,> 100,> 100,,,,,,,,,,
C1CSC[C@H]2COC[C@@H](CSCCS1)S2,,> 100 µM,> 100 µM,> 100 µM,> 100 µM,> 100,> 100,> 100,,> 100,,,,,,,,,,
CCC1CCCCN1CC(C(C)=O)C(c1ccccc1)c1c(O)c2ccccc2oc1=O (centres undefined),> 100 µM,> 100 µM,> 100 µM,> 100 µM,> 100 µM,,> 100,> 100,> 100,,,,,,,,,,,
CN(C)C=N[C@@H](C(=O)O)c1ccccc1,> 100 µM,> 100 µM,,> 100 µM,> 100 µM,> 100,> 100,> 100,,> 100,,,,,,,,,,
C=CCC12CC(=O)CCC1c1ccc(OC)cc1C2=O (centres undefined),> 100 µM,> 100 µM,> 100 µM,> 100 µM,> 100 µM,> 100,> 100,> 100,> 100,,,,,,,,,,,
N#C/C(=C/N1CCN(C(=O)c2ccco2)C1=S)C(=O)Nc1ccc(Cl)cc1,> 50 µM,> 50 µM,> 50 µM,37.2 µM,> 50 µM,,> 50,33.5,> 50,21.9,8.63,16.9,17.3,16.3,11.8,17.8 µM,> 50,12.3,13.2,
CC(/C=C/C(=O)c1sc(C(N)=S)nc1C)=C\c1ccccc1,> 100 µM,,> 100 µM,> 100 µM,> 100 µM,> 100,> 100,> 100,56.4,,,,,,,,,,,
Cc1cc(=O)[nH]c(NNC(C#N)c2ccccc2O)n1 (centres undefined),70.3 µM,> 100 µM,> 100 µM,> 100 µM,> 100 µM,,> 100,> 100,93.6,,,,,,,,,,,
Cc1ccc(N2C(=O)/C(=C/c3ccc(N(CCC#N)CCC#N)cc3)N=C2COc2ccc(Cl)cc2Cl)cc1,> 100 µM,> 100 µM,> 100 µM,> 100 µM,> 100 µM,,> 100,> 100,> 100,,,,,,,,,,,
O=C1C(Cl)=C(Cl)C(=O)N1c1ccc(Cl)c(Cl)c1Cl,> 100 µM,> 100 µM,> 100 µM,> 100 µM,> 100 µM,> 100,> 100,> 100,56.2,,,,,,,,,,,
Brc1cc(C2OCCCO2)ccc1OCc1ccccc1,> 100 µM,> 100 µM,> 100 µM,> 100 µM,> 100 µM,> 100,> 100,> 100,> 100,,,,,,,,,,,
C=C(C(=O)OC)[C@@H]1CC2OC1C(=O)C(C)CCC/C(C)=C/CC[C@@]2(C)O (some centres undefined),74.9 µM,30.1 µM,> 100 µM,91.5 µM,54.5 µM,,,27.9,27.6,55.7,25.2,26.1,15,23.8,31.3,17.2 µM,,14,11.4,
CCOC(=O)c1sc2c(C(=O)OCC)n3cc(C)cc(C)c3c2c1O,> 100 µM,> 100 µM,> 100 µM,> 100 µM,> 100 µM,> 100,> 100,> 100,> 100,,,,,,,,,,,
CCCC(O)c1cn(-c2cccc(S(=O)(=O)O)c2)nn1 (centres undefined),> 100 µM,> 100 µM,> 100 µM,> 100 µM,> 100 µM,> 100,> 100,> 100,> 100,,,,,,,,,,,
COc1ccc(Br)c(CN2CCc3ccccc32)c1OS(=O)(=O)c1ccc(C)cc1,,> 100 µM,> 100 µM,> 100 µM,> 100 µM,> 100,88.8,85.1,,,,,,,,,,,,
CCOC(=O)[C@@]12C(C)=CC(=O)O[C@]1(C)C1C(=O)NC(=O)C12 (some centres undefined),> 100 µM,> 100 µM,> 100 µM,,> 100 µM,> 100,> 100,> 100,,,,,,,,,,,,
CC12CCC(=O)C(O1)C1C(=O)c3ccc4c(ccc5ccccc54)c3C(=O)C12 (centres undefined),2.86 µM,,9.66 µM,10.3 µM,17.5 µM,,54,8.35,6.63,13.2,6.69,1.46,,4.99,5.42,1.31 µM,20.5,4.15,1.82,

SMILES,TGI [1],TGI [2],TGI [3],TGI [4],TGI [5],TGI [6] [µM],TGI [7] [µM],TGI [8] [µM],TGI [9] [µM],TGI [10] [µM],GI50 [10] [µM],GI50 [1] [µM],GI50 [2] [µM],GI50 [3] [µM],GI50 [4] [µM],GI50 [5],GI50 [7] [µM],GI50 [8] [µM],GI50 [9] [µM],GI50 [6] [µM]
CN1CCN=C1c1nnn(-c2ccc([N+](=O)[O-])cc2)c1-c1ccccc1,> 100 µM,> 100 µM,> 100 µM,> 100 µM,> 100 µM,> 100,> 100,> 100,> 100,,,,,,,,,,,
C=CC1C(CC2OC(CO)C(O)C(O)C2O)OC=C2C(=O)OCCC21O (centres undefined),53.3 µM,29.9 µM,30.1 µM,75.6 µM,30.5 µM,34.4,18.6,61.9,78.7,,,21.2,5.38,3.05,20.8,3.78 µM,1.84,24.9,30.6,15.3
COc1cc(Cc2c(C)cc(OC)c3[nH]c4ccccc4c23)cc2c1[nH]c1ccccc12,> 25 µM,> 25 µM,15 µM,22.8 µM,> 25 µM,14.7,,,,,,5.61,8.09,5.43,6.4,5.69 µM,,,,5.43
CS(=O)(=O)c1ccc(COP(N)(=O)N(CCCl)CCCl)cc1 (centres undefined),> 100 µM,> 100 µM,> 100 µM,> 100 µM,> 100 µM,> 100,> 100,> 100,> 100,,,,,,,,,,,
NC1=NC(SCc2ccccc2CCl)c2ncn(Cc3ccccc3CCl)c2N1 (centres undefined),10.4 µM,3.57 µM,3.6 µM,9.85 µM,6.03 µM,,5.47,3.45,3.82,3.35,1.7,2.54,1.54,1.74,2.76,2.04 µM,2.06,1.61,1.77,
CCCCNS(=O)(=O)c1ccc(-c2ccc3c(c2)-c2ccc(S(=O)(=O)NCCCC)cc2S3(=O)=O)cc1,34.3 µM,> 100 µM,> 100 µM,,> 100 µM,> 100,,43,,,,,,,,,,,,
CCCCCCC(=O)C/C(CCC(=O)N(Cc1ccccc1)Cc1ccccc1)=N\NC(N)=O,> 100 µM,> 100 µM,> 100 µM,> 100 µM,> 100 µM,> 100,> 100,> 100,> 100,,,,,,,,,,,
N#CC1=C(N)NC(N2CCOCC2)=NC12Nc1ccccc1O2 (centres undefined),> 100 µM,> 100 µM,> 100 µM,> 100 µM,> 100 µM,,> 100,> 100,86.7,> 100,43.5,53.9,43.2,49.8,96.4,43 µM,> 100,29.5,25.3,
COC(=O)/C(C#N)=C1\CCC(OC)N1C (centres undefined),> 100 µM,> 100 µM,> 100 µM,> 100 µM,> 100 µM,> 100,> 100,> 100,> 100,,,,,,,,,,,
O=S(=O)(/N=S(/Nc1ccccc1)C(F)(F)Cl)c1ccccc1 (centres undefined),> 100 µM,> 100 µM,> 100 µM,> 100 µM,> 100 µM,,> 100,> 100,,,,,,,,,,,,
CCC(C)(O)c1cn(-c2ccc(Cl)cc2)nn1 (centres undefined),> 100 µM,> 100 µM,> 100 µM,> 100 µM,> 100 µM,> 100,> 100,> 100,> 100,,,,,,,,,,,
O=C(O)c1c2c(cc3c(=O)c4ccccc4[nH]c13)CCCC2,> 100 µM,> 100 µM,,> 100 µM,> 100 µM,> 100,> 100,> 100,,,,,,,,,,,,
COc1cc2c(cc1OC)C(C(CBr)CBr)N(C1CCCC1)CC2 (centres undefined),> 100 µM,> 100 µM,> 100 µM,,> 100 µM,> 100,> 100,> 100,> 100,,,,,,,,,,,
O=C1OC(=O)C23CSCC12C1C=CC3O1 (centres undefined),> 100 µM,> 100 µM,> 100 µM,> 100 µM,> 100 µM,> 100,> 100,> 100,> 100,,,,,,,,,,,
CCCCC#Cc1c(I)n(C2OC(CO[Si](C)(C)C(C)(C)C)C3OC(C)(C)OC32)c(=O)n(C(=O)c2ccccc2)c1=O (centres undefined),32.2 µM,6.03 µM,3.05 µM,45.4 µM,23.6 µM,,27.5,27.3,18.4,20.4,8.98,17.7,2.33,1.5,19.3,5.79 µM,14.1,9.44,3.67,
Cc1ccc2oc(=O)c3c(O)c4cccc(OC5OC(C)C6O[C@@H](c7ccccc7)OC6C5OC5OC(C)C(O)C(O)C5O)c4c4oc(=O)c1c2c34 (some centres undefined),0.444 µM and 0.432 µM,2.43 µM and 7.53 µM,1.43 µM and 1.92 µM,1.76 µM and 4.73 µM,0.109 µM and 0.161 µM,1.72,1.54,0.276,,,,,,0.0486,0.251,0.00436 µM and 0.0137 µM,,0.0307,0.0415,0.0747
Cc1ccccc1-n1c(=S)[nH]c2c(sc(=O)n2-c2ccccc2C)c1=O,> 100 µM,> 100 µM,> 100 µM,> 100 µM,> 100 µM,> 100,> 100,> 100,> 100,,,,,,,,,,,
CN1CCC(c2c(O)cc(O)c3c(=O)cc(-c4ccccc4Cl)oc23)C(O)C1 (centres undefined),0.197 µM,> 100 µM,> 100 µM,> 100 µM,0.198 µM,0.454,0.18,0.208,,,,0.0506,0.0532,,,,0.0482,,,
CC1CCCC(C#N)(NOC2=NCCN2)C1 (centres undefined),94.8 µM,> 100 µM,> 100 µM,> 100 µM,> 100 µM,,> 100,> 100,79,42.3,19,26.4,36.3,48.4,26.5,10.7 µM,40.3,35.3,22.7,
COC(=O)C(=O)C(C(=O)C(=O)Nc1ccccc1[N+](=O)[O-])c1nc2ccc([N+](=O)[O-])cc2[nH]c1=O (centres undefined),> 100 µM,> 100 µM,> 100 µM,> 100 µM,> 100 µM,,> 100,> 100,> 100,,,,,,,,,,,
